{
  "source": "patent US9446039B2",
  "about": "“Aminoheteroaryl compounds as MTH1 inhibitors” (CEMM—FORSCHUNGSZENTRUM FÜR MOLEKULARE MEDIZIN GMBH, priority 2012, dated 2016)",
  "type_in_all_cases": "binding",
  "key": {"[1]": {"target": "T1, SW480 colon carcinoma cells lysate proteins (Homo sapiens, UniProt P10599)", "T1 sequence (P10599 1-105)": "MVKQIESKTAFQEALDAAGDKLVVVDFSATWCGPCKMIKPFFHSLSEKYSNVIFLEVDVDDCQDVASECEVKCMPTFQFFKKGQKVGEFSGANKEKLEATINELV", "details": "PreyGene TXN"}, "[2]": {"target": "T2, SW480 colon carcinoma cells lysate proteins (Homo sapiens, UniProt P54577)", "T2 sequence (P54577 1-528)": "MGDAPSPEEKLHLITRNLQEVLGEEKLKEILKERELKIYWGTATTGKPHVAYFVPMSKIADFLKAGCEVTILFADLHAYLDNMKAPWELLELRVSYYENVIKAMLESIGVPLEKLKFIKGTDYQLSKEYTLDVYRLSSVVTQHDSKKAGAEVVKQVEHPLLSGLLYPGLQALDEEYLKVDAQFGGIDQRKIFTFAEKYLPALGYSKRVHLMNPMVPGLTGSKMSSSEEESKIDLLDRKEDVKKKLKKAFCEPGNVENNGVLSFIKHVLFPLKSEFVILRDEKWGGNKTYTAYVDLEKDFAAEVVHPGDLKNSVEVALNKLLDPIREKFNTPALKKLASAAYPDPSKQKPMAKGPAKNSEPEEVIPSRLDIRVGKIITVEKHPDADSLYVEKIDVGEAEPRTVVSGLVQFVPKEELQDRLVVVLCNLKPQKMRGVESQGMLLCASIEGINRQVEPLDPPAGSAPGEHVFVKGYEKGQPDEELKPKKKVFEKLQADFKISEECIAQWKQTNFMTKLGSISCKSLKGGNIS", "details": "PreyGene YARS"}, "[3]": {"target": "SW480 colon carcinoma cells lysate proteins (Homo sapiens, UniProt P30040)", "details": "PreyGene ERP29"}, "[4]": {"target": "SW480 colon carcinoma cells lysate proteins (Homo sapiens, UniProt P27695)", "sequence (P27695 whole entry)": "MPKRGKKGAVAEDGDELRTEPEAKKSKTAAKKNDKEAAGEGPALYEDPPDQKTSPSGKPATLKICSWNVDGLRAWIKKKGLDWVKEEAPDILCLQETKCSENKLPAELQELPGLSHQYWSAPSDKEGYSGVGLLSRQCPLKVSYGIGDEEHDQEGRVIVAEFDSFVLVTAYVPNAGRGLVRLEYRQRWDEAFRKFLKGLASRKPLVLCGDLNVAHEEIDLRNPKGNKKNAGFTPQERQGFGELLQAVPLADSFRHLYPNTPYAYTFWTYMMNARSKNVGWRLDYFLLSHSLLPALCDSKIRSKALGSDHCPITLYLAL", "details": "PreyGene APEX1"}, "[5]": {"target": "SW480 colon carcinoma cells lysate proteins (Homo sapiens, UniProt O75874)", "sequence (O75874 whole entry)": "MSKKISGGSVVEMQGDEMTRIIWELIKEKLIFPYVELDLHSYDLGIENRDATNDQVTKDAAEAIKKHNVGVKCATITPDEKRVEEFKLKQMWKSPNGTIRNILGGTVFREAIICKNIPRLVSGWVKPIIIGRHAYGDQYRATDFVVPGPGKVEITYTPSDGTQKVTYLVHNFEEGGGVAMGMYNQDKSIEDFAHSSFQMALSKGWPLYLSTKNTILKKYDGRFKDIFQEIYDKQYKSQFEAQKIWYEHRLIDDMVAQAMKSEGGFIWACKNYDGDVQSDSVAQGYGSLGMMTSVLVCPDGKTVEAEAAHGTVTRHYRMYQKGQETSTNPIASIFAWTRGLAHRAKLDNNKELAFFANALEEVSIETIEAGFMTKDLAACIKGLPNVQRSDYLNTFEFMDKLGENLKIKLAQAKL", "details": "PreyGene IDH1"}, "[6]": {"target": "T3, SW480 colon carcinoma cells lysate proteins (Homo sapiens, UniProt P31949)", "T3 sequence (P31949 1-105)": "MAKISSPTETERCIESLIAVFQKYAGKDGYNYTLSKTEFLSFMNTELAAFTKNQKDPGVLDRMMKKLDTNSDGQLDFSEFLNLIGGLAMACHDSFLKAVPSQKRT", "details": "PreyGene S100A11"}, "[7]": {"target": "T4, SW480 colon carcinoma cells lysate proteins (Homo sapiens, UniProt Q15084)", "T4 sequence (Q15084 20-440)": "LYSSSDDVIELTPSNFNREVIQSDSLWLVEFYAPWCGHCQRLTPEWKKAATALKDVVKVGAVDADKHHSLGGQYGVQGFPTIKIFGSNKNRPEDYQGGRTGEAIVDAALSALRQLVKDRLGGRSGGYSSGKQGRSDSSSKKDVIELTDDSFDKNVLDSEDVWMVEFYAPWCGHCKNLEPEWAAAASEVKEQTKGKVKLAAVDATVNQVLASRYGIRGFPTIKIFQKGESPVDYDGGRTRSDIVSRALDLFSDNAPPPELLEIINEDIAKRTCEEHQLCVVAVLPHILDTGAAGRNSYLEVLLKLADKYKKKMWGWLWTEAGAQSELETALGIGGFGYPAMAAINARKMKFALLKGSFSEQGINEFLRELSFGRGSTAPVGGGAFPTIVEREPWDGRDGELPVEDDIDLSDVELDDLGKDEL", "details": "PreyGene PDIA6"}, "[8]": {"target": "T5, SW480 colon carcinoma cells lysate proteins (Homo sapiens, UniProt P26639)", "T5 sequence (P26639 1-723)": "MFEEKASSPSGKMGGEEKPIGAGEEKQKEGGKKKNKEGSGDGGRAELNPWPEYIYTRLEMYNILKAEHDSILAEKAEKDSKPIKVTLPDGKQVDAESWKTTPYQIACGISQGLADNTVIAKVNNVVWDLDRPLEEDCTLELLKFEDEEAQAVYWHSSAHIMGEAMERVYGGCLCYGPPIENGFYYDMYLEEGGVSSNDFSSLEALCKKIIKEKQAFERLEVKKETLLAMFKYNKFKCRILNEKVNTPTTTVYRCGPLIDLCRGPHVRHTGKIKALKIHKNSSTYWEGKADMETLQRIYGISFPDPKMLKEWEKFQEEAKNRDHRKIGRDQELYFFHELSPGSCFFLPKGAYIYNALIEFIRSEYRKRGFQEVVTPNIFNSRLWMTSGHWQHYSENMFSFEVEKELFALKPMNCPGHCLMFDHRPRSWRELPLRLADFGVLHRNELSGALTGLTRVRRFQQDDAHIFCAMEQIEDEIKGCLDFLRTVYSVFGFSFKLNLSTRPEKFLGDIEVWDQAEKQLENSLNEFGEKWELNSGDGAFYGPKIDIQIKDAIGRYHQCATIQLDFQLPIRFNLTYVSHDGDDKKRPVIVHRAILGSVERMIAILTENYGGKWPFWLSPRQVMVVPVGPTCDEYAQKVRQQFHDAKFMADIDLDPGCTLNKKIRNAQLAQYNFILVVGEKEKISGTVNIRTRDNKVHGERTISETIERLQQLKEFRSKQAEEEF", "details": "PreyGene TARS"}},
  "data": [
    {"smiles": "C[C@H](Oc1cc(-c2cnn(C3CCNCC3)c2)cnc1N)c1c(Cl)ccc(F)c1Cl", "note": "[(5)-crizotinib]", "values": [
      {"measurement": "AvgP", "setting": "[1]", "result": 0.4587},
      {"measurement": "SC.Exp. 1-1", "setting": "[1]", "result": 4},
      {"measurement": "SC.Exp. 1-2", "setting": "[1]", "result": 5},
      {"measurement": "SC.Exp. 2-1", "setting": "[1]", "result": 2},
      {"measurement": "SC.Exp. 2-2", "setting": "[1]", "result": 1},
      {"measurement": "Sum (SC.Exp.)", "setting": "[1]", "result": 12},
      {"measurement": "AvgP", "setting": "[2]", "result": 0.2511},
      {"measurement": "SC.Exp. 1-1", "setting": "[2]", "result": 2},
      {"measurement": "SC.Exp. 1-2", "setting": "[2]", "result": 1},
      {"measurement": "SC.Exp. 2-1", "setting": "[2]", "result": 0},
      {"measurement": "SC.Exp. 2-2", "setting": "[2]", "result": 0},
      {"measurement": "Sum (SC.Exp.)", "setting": "[2]", "result": 3},
      {"measurement": "AvgP", "setting": "[3]", "result": 0.1841},
      {"measurement": "SC.Exp. 1-1", "setting": "[3]", "result": 2},
      {"measurement": "SC.Exp. 1-2", "setting": "[3]", "result": 0},
      {"measurement": "SC.Exp. 2-1", "setting": "[3]", "result": 0},
      {"measurement": "SC.Exp. 2-2", "setting": "[3]", "result": 0},
      {"measurement": "Sum (SC.Exp.)", "setting": "[3]", "result": 2},
      {"measurement": "AvgP", "setting": "[4]", "result": 0.1792},
      {"measurement": "SC.Exp. 1-1", "setting": "[4]", "result": 2},
      {"measurement": "SC.Exp. 1-2", "setting": "[4]", "result": 0},
      {"measurement": "SC.Exp. 2-1", "setting": "[4]", "result": 0},
      {"measurement": "SC.Exp. 2-2", "setting": "[4]", "result": 0},
      {"measurement": "Sum (SC.Exp.)", "setting": "[4]", "result": 2},
      {"measurement": "AvgP", "setting": "[5]", "result": 0.1991},
      {"measurement": "SC.Exp. 1-1", "setting": "[5]", "result": 3},
      {"measurement": "SC.Exp. 1-2", "setting": "[5]", "result": 0},
      {"measurement": "SC.Exp. 2-1", "setting": "[5]", "result": 0},
      {"measurement": "SC.Exp. 2-2", "setting": "[5]", "result": 0},
      {"measurement": "Sum (SC.Exp.)", "setting": "[5]", "result": 3},
      {"measurement": "AvgP", "setting": "[6]", "result": 0.3773},
      {"measurement": "SC.Exp. 1-1", "setting": "[6]", "result": 4},
      {"measurement": "SC.Exp. 1-2", "setting": "[6]", "result": 5},
      {"measurement": "SC.Exp. 2-1", "setting": "[6]", "result": 0},
      {"measurement": "SC.Exp. 2-2", "setting": "[6]", "result": 0},
      {"measurement": "Sum (SC.Exp.)", "setting": "[6]", "result": 9},
      {"measurement": "AvgP", "setting": "[7]", "result": 0.4427},
      {"measurement": "SC.Exp. 1-1", "setting": "[7]", "result": 3},
      {"measurement": "SC.Exp. 1-2", "setting": "[7]", "result": 4},
      {"measurement": "SC.Exp. 2-1", "setting": "[7]", "result": 0},
      {"measurement": "SC.Exp. 2-2", "setting": "[7]", "result": 0},
      {"measurement": "Sum (SC.Exp.)", "setting": "[7]", "result": 7},
      {"measurement": "AvgP", "setting": "[8]", "result": 0.4614},
      {"measurement": "SC.Exp. 1-1", "setting": "[8]", "result": 5},
      {"measurement": "SC.Exp. 1-2", "setting": "[8]", "result": 4},
      {"measurement": "SC.Exp. 2-1", "setting": "[8]", "result": 0},
      {"measurement": "SC.Exp. 2-2", "setting": "[8]", "result": 0},
      {"measurement": "Sum (SC.Exp.)", "setting": "[8]", "result": 9}
    ]}
  ]
}
